Measurements taken from patent US12427146B2, “C-terminal SRC kinase inhibitors” (INVENTISBIO CO., LTD., priority 2018, dated 2025).

Columns and labels:
LCK protein = LCK protein (Homo sapiens (Human), UniProt P06239); test: LCK Inhibition Assay; format: biochemical
Experimental: Test compound was dissolved in DMSO at 10 mM. 45 uL of compound was transfer into a 384-well compound source plate (LABCYTE cat #P-05525) and serially diluted at 1:3 ratio to create a 11-point dilutions. The same volume of DMSO was adopted as high control. 20 nL of these compounds DMSO dilutes were dispensed into a new 384-well assay plate by Echo 550. LCK protein (0.50 nM, Cama Biosciences, cat #08-170), florescent labeled substrate FLPeptide4 (2 μM, PerkinElmer, cat #760348) was prepared in kinase assay buffer (50 mM HEPES (pH 7.5), 10 mM MgCl2, 0.01% Brij-35, 2 mM DTT and 0.005 mg/ml BSA). 15 uL of kinase assay buffer containing LCK protein and substrate was transferred to assay plate and incubate at RT for 30 minutes. Kinase assay buffer supplemented with substrate peptides was employed as low control to monitor the background. 400 μM ATP was prepared in kinase assay buffer and 5 μL of ATP solution was added to each well to start the reaction. The assay plate was incubated at 25° C. for 90 minutes and the reaction was stopped by adding 40 μL of 0.5 M EDTA.
(§1) Phosphorylated fluorescent-tagged peptides were differentiated from non-phosphorylated peptides by separating using Caliper EZ Reader II and the detection was directly converted to conversion ratio.
(§2) For estimation of IC50, the % substrate conversion values are transformed to % Inhibition Ratio by applying the following equation: […]

CSK protein = CSK protein (Homo sapiens (Human), UniProt P41240); test: CSK Inhibition Assay; format: biochemical
Experimental: Test compound was dissolved in DMSO at 10 mM. 45 uL of compound was transferred into a 384-well compound source plate (LABCYTE cat #P-05525) and serially diluted at 1:3 ratio to create a 11-point dilutions. The same volume of DMSO was adopted as high control. 20 nL of these compounds DMSO dilutes were dispensed into a new 384-well assay plate by Echo 550. […] 15 uL of kinase assay buffer containing CSK protein and substrate was transferred to assay plate and incubated at RT for 30 minutes. Kinase assay buffer supplemented with substrate peptides was employed as low control to monitor the background. 4 μM of ATP was prepared in kinase assay buffer and 5 μL of ATP solution was added to each well to start the reaction. The assay plate was incubated at 25° C. for 90 minutes and the reaction was stopped by adding 40 μL of 0.5 M EDTA.
as §1, §2

Sequence of LCK protein (P06239 whole entry): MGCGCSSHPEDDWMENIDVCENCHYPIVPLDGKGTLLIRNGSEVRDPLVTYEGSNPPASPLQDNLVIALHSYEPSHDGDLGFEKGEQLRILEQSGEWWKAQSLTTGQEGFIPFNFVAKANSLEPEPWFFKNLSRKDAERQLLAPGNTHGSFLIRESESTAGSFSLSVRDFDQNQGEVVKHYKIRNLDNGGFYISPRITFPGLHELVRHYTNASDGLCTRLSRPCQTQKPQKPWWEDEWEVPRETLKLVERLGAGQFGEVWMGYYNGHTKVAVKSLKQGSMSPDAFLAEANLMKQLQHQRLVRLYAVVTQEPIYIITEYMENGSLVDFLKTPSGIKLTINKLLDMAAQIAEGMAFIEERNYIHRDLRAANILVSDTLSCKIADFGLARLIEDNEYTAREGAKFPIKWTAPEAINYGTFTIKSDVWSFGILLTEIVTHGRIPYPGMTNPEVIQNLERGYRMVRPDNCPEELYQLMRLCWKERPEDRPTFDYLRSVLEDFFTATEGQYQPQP

| Compound | IC50 (LCK protein) [nM] | IC50 (CSK protein) [nM] |
| --- | --- | --- |
| Cc1cccn2c(-c3ccnc(N)n3)c(-c3cccc(NS(=O)(=O)c4c(F)cccc4F)c3F)nc12 [Compound 93] | > 1000 | 41.8 |
| NC(=O)c1ccn2c(-c3ccnc(N)n3)c(-c3cccc(NS(=O)(=O)c4c(F)cccc4F)c3F)nc2c1 [Compound 94] | > 1000 | 98.6 |
| CN(C)c1ccn2c(-c3ccnc(N)n3)c(-c3cccc(NS(=O)(=O)c4c(F)cccc4F)c3F)nc2c1 [Compound 95] | > 1000 | 71.6 |
| Nc1nccc(-c2c(-c3cccc(NS(=O)(=O)c4c(F)cccc4F)c3F)nc3cc(C(=O)O)ccn23)n1 [Compound 96] | > 1000 | 127 |
| CCOc1ccn2c(-c3ccnc(N)n3)c(-c3cccc(NS(=O)(=O)c4c(F)cccc4F)c3F)nc2c1 [Compound 97] | > 1000 | 98.2 |
| CNc1nccc(-c2c(-c3cccc(NS(=O)(=O)c4c(F)cccc4F)c3F)nc3cc(OC)ccn23)n1 [Compound 98] | > 1000 | 78.3 |
| COc1cc2nc(-c3cccc(NS(=O)(=O)c4c(F)cccc4F)c3F)c(-c3ccnc(N)n3)n2cc1Cl [Compound 100] | > 1000 | 137 |
| N#Cc1ccn2c(-c3ccnc(N)n3)c(-c3cccc(NS(=O)(=O)c4c(F)cccc4F)c3F)nc2c1 [Compound 101] | > 1000 | 436 |
| CNc1nccc(-c2c(-c3cccc(NS(=O)(=O)c4c(F)ccc(C)c4F)c3F)nc3c(F)cccn23)n1 [Compound 102] | > 1000 | 96.5 |
| CNc1nccc(-c2c(-c3cccc(NS(=O)(=O)c4c(F)ccc(C)c4F)c3F)nc3cc(OC)ccn23)n1 [Compound 103] | > 1000 | 51.8 |
| CC(C)Oc1ccn2c(-c3ccnc(N)n3)c(-c3cccc(NS(=O)(=O)c4c(F)cccc4F)c3F)nc2c1 [Compound 104] | > 1000 | 134 |
| Nc1nccc(-c2c(-c3cccc(NS(=O)(=O)c4c(F)cccc4F)c3F)nc3cc(C(F)(F)F)ccn23)n1 [Compound 105] | > 1000 | 400 |
| CNc1nccc(-c2c(-c3cccc(NS(=O)(=O)c4c(F)ccc(C)c4F)c3F)nc3ccc(F)cn23)n1 [Compound 106] | > 1000 | 91.7 |
| CNc1nccc(-c2c(-c3cccc(NS(=O)(=O)c4c(F)ccc(C)c4F)c3F)nc3cc(F)ccn23)n1 [Compound 107] | > 1000 | 113 |
| O=S(=O)(Nc1cccc(-c2nn(C3CCCCC3)cc2-c2ccnc(Nc3ccc(N4CCOCC4)nc3)n2)c1F)c1c(F)cccc1F [Compound 109] | < 100 | 4.6 |
| Nc1nccc(-c2cn(C3CCCCC3)nc2-c2cccc(NS(=O)(=O)c3c(F)cccc3F)c2F)n1 [Compound 110] | > 1000 | 221 |
| Nc1nccc(-c2sc(N3CCCCC3)nc2-c2cccc(NS(=O)(=O)c3c(F)cccc3F)c2F)n1 [Compound 111] | 100 to 1000 | 16.4 |
| CNc1nccc(-c2sc(N3CCCC3=O)nc2-c2cccc(NS(=O)(=O)c3c(F)cccc3F)c2F)n1 [Compound 113] | > 1000 | 23.8 |
| CNc1nccc(-c2sc(NC)nc2-c2cccc(NS(=O)(=O)c3c(F)cccc3F)c2F)n1 [Compound 114] | 100 to 1000 | 18.5 |
| CNc1nccc(-c2sc(N3CCCCC3)nc2-c2cccc(NS(=O)(=O)c3c(F)cccc3F)c2F)n1 [Compound 115] | > 1000 | 7.1 |
| CNc1nccc(-c2sc(N3CCOCC3)nc2-c2cccc(NS(=O)(=O)c3c(F)cccc3F)c2F)n1 [Compound 116] | 100 to 1000 | 13.5 |
| CNc1nccc(-c2sc(C(C)(C)C)nc2-c2cccc(NS(=O)(=O)c3c(F)cccc3F)c2F)n1 [Compound 117] | > 1000 | 81.5 |
| CN1CCN(c2ccc(Nc3nccc(-c4sc(C(C)(C)C)nc4-c4cccc(NS(=O)(=O)c5c(F)cccc5F)c4F)n3)cn2)CC1 [Compound 119] | < 100 | 3.7 |

Other lines, results leading:

| IC50 (LCK protein) [nM] | IC50 (CSK protein) [nM] | Compound |
| --- | --- | --- |
| < 100 | 20.6 | CC(C)c1nc(-c2cccc(NS(=O)(=O)c3c(F)cccc3F)c2F)c(-c2ccnc(Nc3ccccc3)n2)s1 [Compound 120] |
| < 100 | 15.5 | O=S(=O)(Nc1cccc(-c2nc(C3CCCCC3)sc2-c2ccnc(Nc3ccc(N4CCOCC4)nc3)n2)c1F)c1c(F)cccc1F [Compound 121] |
| 100 to 1000 | 634 | Nc1nccc(-c2sc(C3CCNCC3)nc2-c2cccc(NS(=O)(=O)c3c(F)cccc3F)c2F)n1 [Compound 122] |
| > 1000 | 23.2 | CNc1nccc(-c2sc(-c3ccc(F)cn3)nc2-c2cccc(NS(=O)(=O)c3c(Cl)cccc3Cl)c2F)n1 [Compound 123] |
| > 1000 | 14.9 | CNc1nccc(-c2sc(N3CCCC3=O)nc2-c2cccc(NS(=O)(=O)c3c(F)ccc(C)c3F)c2F)n1 [Compound 124] |
| > 1000 | 15.3 | Cc1ccc(Cl)c(S(=O)(=O)Nc2cccc(-c3nc(-c4ccc(F)cn4)sc3-c3ccnc(N)n3)c2F)c1Cl [Compound 125] |
| > 1000 | 30.2 | CNc1nccc(-c2sc(-c3ccc(F)cn3)nc2-c2cccc(NS(=O)(=O)c3c(Cl)ccc(C)c3Cl)c2F)n1 [Compound 126] |
| > 1000 | 5.8 | CNc1nccc(-c2sc(-c3cncc(F)c3)nc2-c2cccc(NS(=O)(=O)c3c(Cl)cccc3Cl)c2F)n1 [Compound 127] |
| > 1000 | 12 | CNc1nccc(-c2sc(N3CCCC3)nc2-c2cccc(NS(=O)(=O)c3c(F)cccc3F)c2F)n1 [Compound 128] |
| > 1000 | 7.4 | COc1ccn2c(-c3ccnc(NC4CC4)n3)c(-c3cccc(NS(=O)(=O)c4c(F)ccc(C)c4F)c3F)nc2c1 [Compound 129] |
| > 1000 | 215 | COc1ccn2c(-c3ccnc(NCCO)n3)c(-c3cccc(NS(=O)(=O)c4c(F)ccc(C)c4F)c3F)nc2c1 [Compound 130] |
| > 1000 | 13.1 | Cc1ccc(F)c(S(=O)(=O)Nc2cccc(-c3nc(-c4ccccc4)sc3-c3ccnc(NCCO)n3)c2F)c1F [Compound 131] |
| 100 to 1000 | 62 | Nc1nccc(-c2sc(-c3ccc(F)cn3)nc2-c2cccc(NS(=O)(=O)c3c(Cl)cccc3Cl)c2F)n1 [Compound 132] |
| > 1000 | 17.8 | O=S(=O)(Nc1cccc(-c2nc(-c3ccc(F)cn3)sc2-c2ccnc(NCCO)n2)c1F)c1c(Cl)cccc1Cl [Compound 133] |
| > 1000 | 184 | CNc1nccc(-c2sc(-c3ccc(F)cn3)nc2-c2cccc(NS(=O)(=O)c3c(F)cc(Cl)cc3F)c2F)n1 [Compound 134] |
| > 1000 | 15.7 | O=S(=O)(Nc1cccc(-c2nc(-c3ccc(F)cn3)sc2-c2ccnc(NC3CC3)n2)c1F)c1c(Cl)cccc1Cl [Compound 135] |
| > 1000 | 108 | Cc1ccc(Cl)c(S(=O)(=O)Nc2cccc(-c3nc(-c4ccc(F)cn4)sc3-c3ccnc(NCCO)n3)c2F)c1Cl [Compound 136] |
| > 1000 | 21.3 | Cc1ccc(Cl)c(S(=O)(=O)Nc2cccc(-c3nc(-c4ccc(F)cn4)sc3-c3ccnc(NC4CC4)n3)c2F)c1Cl [Compound 137] |
| > 1000 | 8.5 | Cc1ccc(Cl)c(S(=O)(=O)Nc2cccc(-c3nc(-c4cncc(F)c4)sc3-c3ccnc(NCCO)n3)c2F)c1Cl [Compound 138] |
| > 1000 | 2.7 | Cc1ccc(Cl)c(S(=O)(=O)Nc2cccc(-c3nc(-c4cncc(F)c4)sc3-c3ccnc(NC4CC4)n3)c2F)c1Cl [Compound 139] |
| > 1000 | 16.5 | CNc1nccc(-c2sc(-c3cncc(F)c3)nc2-c2cc(Cl)cc(NS(=O)(=O)c3c(F)cccc3F)c2F)n1 [Compound 140] |
| 100 to 1000 | 6.8 | Cc1ncc(-c2nc(-c3cccc(NS(=O)(=O)c4c(Cl)cccc4Cl)c3F)c(-c3ccnc(N)n3)s2)cn1 [Compound 141] |
| > 1000 | 10.5 | Cc1ncc(-c2nc(-c3cccc(NS(=O)(=O)c4c(Cl)ccc(C)c4Cl)c3F)c(-c3ccnc(N)n3)s2)cn1 [Compound 142] |
| > 1000 | 3.6 | CNc1nccc(-c2sc(-c3cnc(C)nc3)nc2-c2cccc(NS(=O)(=O)c3c(Cl)ccc(C)c3Cl)c2F)n1 [Compound 143] |
| > 1000 | 23.9 | CNc1nccc(-c2sc(-c3cnc(C)cn3)nc2-c2cccc(NS(=O)(=O)c3c(F)ccc(C)c3F)c2F)n1 [Compound 144] |
| > 1000 | 113 | CNc1nccc(-c2c(-c3cccc(NS(=O)(=O)c4c(Cl)cccc4Cl)c3F)nc3cc(OC)ccn23)n1 [Compound 145] |
